The record followed here is PubChem BioAssay (NCI).

Some test systems named below: 786-0 renal; CAKI-1 renal; HOP-92 NSCLC; SNB-75 CNS; SF-268 CNS; TK-10 renal; OVCAR-3 ovarian; SK-OV-3 ovarian.
Holding throughout (experiment): NCI-60 cell line screen, 48 h

Molecules are shown by their SMILES.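 Five compound concentrations were applied to cells in 96-well plates for 48 hours; endpoints were derived by simple linear interpolation of the resulting dose-response curve. At the GI50, growth is halved. TGI marks complete inhibition of growth.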

Take `O=C(CCN1CCCC1)Nc1ccc2c(Nc3ccc(F)cc3)c3ccccc3nc2c1`: the GI50 with 786-0 renal is 1.21 µM; in the test with CAKI-1 renal, 1.26 µM; in the test on HOP-92 NSCLC, 1.18 µM; in the test with SNB-75 CNS it was 1.37 µM; in the test on SF-268 CNS it was 1.19 µM; in the test on TK-10 renal, 1.66 µM. The GI50 in the test with OVCAR-3 ovarian was 1.68 µM. In addition, the TGI with 786-0 renal turned out to be 2.77 µM; with CAKI-1 renal it was 2.6 µM; in the test with HOP-92 NSCLC, 2.68 µM; in the test on SNB-75 CNS, 2.72 µM; with SF-268 CNS it was 2.82 µM; in the test with TK-10 renal it was 3.97 µM. Besides, the TGI in the test with OVCAR-3 ovarian came out at 4.21 µM.
Take `CN(C)Cc1ccc(NC(=O)c2cncc(C#Cc3cnc(N)c4ncccc34)c2)cc1C(F)(F)F`: the GI50 in the test with 786-0 renal was 1.77 µM; in the test with CAKI-1 renal, 3.48 µM; in the test on HOP-92 NSCLC, 1.04 µM; in the test on SNB-75 CNS it was 1.69 µM; in the test with SF-268 CNS it was 1.66 µM; with TK-10 renal it was 1.81 µM. Also, the GI50 with OVCAR-3 ovarian was 1.98 µM. The TGI is 3.26 µM in the test with 786-0 renal; 11.5 µM in the test with CAKI-1 renal; 4.66 µM in the test with HOP-92 NSCLC; 3.09 µM in the test on SNB-75 CNS; 3.2 µM with SF-268 CNS; 3.31 µM in the test with TK-10 renal. In the test with OVCAR-3 ovarian, this compound displayed a TGI of 3.8 µM.
`COc1ccc(-c2cn(C)c3c2-n2cccc2C3=O)cc1O`: the GI50 in the test on 786-0 renal was 9.86 µM; in the test with CAKI-1 renal, 2.09 µM; in the test on HOP-92 NSCLC, 6.8 µM; with SK-OV-3 ovarian, 5.86 µM; in the test on SF-268 CNS, 11.4 µM; in the test with TK-10 renal it was 3.05 µM. Also, the GI50 in the test on OVCAR-3 ovarian was 3.39 µM. The TGI is 30.7 µM with 786-0 renal; 7.77 µM in the test with CAKI-1 renal; more than 100 µM with HOP-92 NSCLC; 94.7 µM with SK-OV-3 ovarian; 50.5 µM in the test with SF-268 CNS; 8.29 µM in the test with TK-10 renal. In the test on OVCAR-3 ovarian, the TGI was 21.4 µM.
As for `CC(C)(C)OC(=O)NCCCCCCCCCn1c2c(c3ccccc3c1=O)C(=O)c1ccccc1-2`, the GI50 is 17.5 µM with 786-0 renal; 14.6 µM in the test on HOP-92 NSCLC; 23.6 µM in the test with SK-OV-3 ovarian; 11.2 µM with SNB-75 CNS; 32.6 µM with SF-268 CNS; 17.4 µM in the test on TK-10 renal. Also, the GI50 in the test with OVCAR-3 ovarian is 29.2 µM. In addition, the TGI in the test on 786-0 renal was 76.9 µM; in the test on HOP-92 NSCLC it was 41.6 µM; in the test on SK-OV-3 ovarian, 78.3 µM; in the test with SNB-75 CNS it was 36.8 µM; in the test on SF-268 CNS, more than 100 µM; in the test with TK-10 renal it was 45.8 µM. The same compound yielded a TGI in the test with OVCAR-3 ovarian of more than 100 µM.
In the case of `O=C1/C(=C/c2ccc(F)cc2)COc2ccc(O)c(O)c21`, the GI50 in the test with 786-0 renal was 1.84 µM; with CAKI-1 renal, 1.65 µM; in the test with SK-OV-3 ovarian, 4.45 µM; with SNB-75 CNS it was 1.71 µM; with SF-268 CNS, 2.51 µM; in the test with TK-10 renal, 4.74 µM. Also, the GI50 with OVCAR-3 ovarian was 0.864 µM. The TGI in the test with 786-0 renal was 5.63 µM; in the test on CAKI-1 renal, 5.61 µM; with SK-OV-3 ovarian, more than 100 µM; in the test with SNB-75 CNS it was more than 100 µM; in the test with SF-268 CNS, 9.27 µM; in the test with TK-10 renal, more than 100 µM. In addition, the TGI in the test with OVCAR-3 ovarian came out at 9.4 µM.
Turning to `COc1ccc(/C=C\c2cc(OC)c(OC)c(OC)c2)cc1NC(=O)/C=C/c1ccc(OC)c(OC)c1`, the GI50 was 4.79 µM with 786-0 renal; 3.55 µM in the test with CAKI-1 renal; more than 100 µM with HOP-92 NSCLC; 0.0736 µM in the test on SK-OV-3 ovarian; 7.29 µM in the test on SF-268 CNS; more than 100 µM with TK-10 renal. In addition, the GI50 with OVCAR-3 ovarian was 6.41 µM. Also, the TGI is more than 100 µM in the test with 786-0 renal; more than 100 µM in the test on CAKI-1 renal; more than 100 µM in the test on HOP-92 NSCLC; 0.676 µM in the test on SK-OV-3 ovarian; more than 100 µM in the test with SF-268 CNS; more than 100 µM in the test on TK-10 renal. The compound further gave a TGI in the test with OVCAR-3 ovarian of more than 100 µM.
On to `OCc1c(-c2cccs2)oc(-c2cccs2)c1CO`, for which the GI50 in the test with 786-0 renal was more than 100 µM; in the test with CAKI-1 renal, 38.2 µM; with HOP-92 NSCLC, 42.8 µM; with SNB-75 CNS it was 69.4 µM; in the test on SF-268 CNS it was 35 µM; with TK-10 renal, 10.2 µM. In the test with OVCAR-3 ovarian, the GI50 was 48.1 µM. The TGI with 786-0 renal is more than 100 µM; with CAKI-1 renal it was 94.9 µM; in the test with HOP-92 NSCLC it was more than 100 µM; with SNB-75 CNS, more than 100 µM; with SF-268 CNS, more than 100 µM; in the test on TK-10 renal it was 56.7 µM. In addition, the TGI in the test on OVCAR-3 ovarian is more than 100 µM.
Regarding `Cc1cccc(NC(=O)c2c(N)[n+]([O-])c3ccccc3[n+]2[O-])c1`, the TGI with 786-0 renal is 17.9 µM; in the test on CAKI-1 renal, 27.4 µM; in the test with HOP-92 NSCLC, 29.5 µM; with SK-OV-3 ovarian, 63 µM; in the test with SNB-75 CNS, 30.2 µM; in the test with SF-268 CNS, 22.8 µM. Also, the TGI in the test on OVCAR-3 ovarian came to 29.1 µM.
`O=C1OC(C(O)CO)C(C(O)CO)OC1=O` (configuration not stated): the TGI in the test with 786-0 renal, in the test with CAKI-1 renal, in the test on SF-268 CNS, with TK-10 renal and in the test with OVCAR-3 ovarian was more than 10 µM throughout.
Take `CN[C@@H](C)C(=O)N[C@H](C(=O)N1CCC[C@H]1c1nc(C(=O)c2ccc(F)cc2)cs1)C1CCCCC1`: the GI50 is 17.1 µM in the test with 786-0 renal; 34.9 µM with CAKI-1 renal; 2.8 µM in the test on HOP-92 NSCLC; 4.31 µM in the test with SNB-75 CNS; 46.9 µM in the test with SF-268 CNS; 22.3 µM in the test on TK-10 renal. Besides, the GI50 in the test on OVCAR-3 ovarian was 25.5 µM. The TGI in the test on 786-0 renal was 34 µM; in the test on CAKI-1 renal, more than 100 µM; in the test with HOP-92 NSCLC, 8.98 µM; in the test on SNB-75 CNS it was 20.9 µM; in the test with SF-268 CNS, more than 100 µM; with TK-10 renal it was 45.6 µM. In the test with OVCAR-3 ovarian, this compound returned a TGI of more than 100 µM.
As to `COc1ccc(CCN2CCCn3c2nc2ccccc2c3=O)cc1`, the GI50 was 0.299 µM in the test on 786-0 renal; 0.252 µM in the test with CAKI-1 renal; 3.33 µM with HOP-92 NSCLC; 0.396 µM in the test with SK-OV-3 ovarian; 1.16 µM in the test on SF-268 CNS; 0.0328 µM with OVCAR-3 ovarian. In addition, the TGI is more than 100 µM in the test with 786-0 renal; more than 100 µM with CAKI-1 renal; more than 95.6 µM with HOP-92 NSCLC; more than 100 µM in the test with SK-OV-3 ovarian; more than 100 µM in the test with SF-268 CNS; more than 100 µM in the test with TK-10 renal. This compound also came in with a TGI in the test with OVCAR-3 ovarian of 0.136 µM.
